Publication PMC9320654 (Toxins, 2022)
Where a name gives a salt, the structure may show the parent alone.

Tests used:
[1] = Metabolic stability in cryopreserved hepatocytes, human; assay type: in vitro ADME
Method: (§1) Hepatocyte metabolic stability was evaluated in cryopreserved hepatocytes from CD-1 mice (Lot#: EXR), Sprague Dawley rats (Lot#: OSQ), beagle dogs (Lot#: ZMB), cynomolgus monkeys (Lot#: KMS), and human donors (Lot#: AEL) obtained from Bioreclamation IVT, LLC (Shanghai, China). […] Samples were withdrawn from the reaction mixture at 0, 15, 30, 60, and 90 min and were quenched with stop solution (acetonitrile containing 200 ng/mL tolbutamide and 200 ng/mL labetalol as internal standards). A cocktail of 7-ethoxycoumarin (Lot#: I1825085) was used as the positive control for the assay. The analytical plates were sealed and stored at 4 °C until LC-MS/MS analysis.
(§2) The remaining percentages of test articles after incubation were calculated by the following equations:(7) %Remainingat Appointed Time=Peak Area Ratios of Test Article versus Internal Standard at Appointed Time/Peak Area Ratios of Test Article versus Internal Standard 0 min
(§3) We used the equation of first order kinetics to calculate T1/2 and CLint:
(§4) Equation of first-order kinetics:(8) Ct=C0·e^−k·t when Ct=1/2C0,T1/2=ln2/k=0.693/k (9) CLint hep=k/million cells per mL (10) CLint liver=CLint hep×Liver weight g/kg body weight×hepatocellularity

[2] = Metabolic stability in cryopreserved hepatocytes, monkey; assay type: in vitro ADME, cynomolgus monkey
Method: as §1, §2, §3, §4

[3] = Metabolic stability in cryopreserved hepatocytes, dog; assay type: in vitro ADME, beagle dog
Method: as §1, §2, §3, §4

[4] = Metabolic stability in cryopreserved hepatocytes, mouse; assay type: in vitro ADME, CD-1 mouse
Method: as §1, §2, §3, §4

[5] = Metabolic stability in cryopreserved hepatocytes, rat; assay type: in vitro ADME, Sprague Dawley rat
Method: as §1, §2, §3, §4

[6] = Plasma stability, dog plasma; assay type: in vitro ADME; conditions: beagle
Method: (§5) The pooled frozen plasma was thawed in a water bath at 37 °C prior to the experiment. Plasma was centrifuged at 4000 rpm for 5 min, and the clots, if any, were removed. Using an Apricot automation workstation, blank plasma (98 μL/well) was added to six 96-well reaction plates (Blank, T0, T10, T30, T60, and T120). An Apricot automation workstation was used to add working solution (2 μL/well, 100 μM) to all reaction plates except the Blank plate (T0, T10, T30, T60, and T120). All reaction plates containing mixtures of compound and plasma were incubated at 37 °C in a water bath. At the end of the incubation, 400 μL of stop solution (200 ng/mL tolbutamide and 200 ng/mL labetalol in acetonitrile) was added to precipitate the protein, and the mixture was mixed thoroughly. Samples were then vortexed and centrifuged (20 min, 4000 rpm, 4 °C). After centrifugation, an Apricot automation workstation was used to transfer 50 μL of supernatant into 100 μL of HPLC water. […] Each bioanalysis plate was sealed and shaken for 10 min prior to LC-MS/MS analysis. The % remaining test compound after incubation in plasma was calculated using the following equation:(11) % Remaining= PAR at appointed incubation time/PAR at T0 time×100 where PAR is the peak area ratio of analyte versus internal standard (IS).
(§6) The appointed incubation time points are T0 (0 min), Tn (n = 0, 10, 30, 60, 120 min).

[7] = Plasma stability, rat plasma; assay type: in vitro ADME
Method: as §5, §6

[8] = Metabolite identification by LC-UV-MS^n in rat liver microsomes; assay type: in vitro ADME; parameters: key: +: metabolite was detected in liver microsomes; -: metabolite was detected in liver microsomes; conditions: BEA 10 µM, 37 °C, 60 min
Method: (§7) The positive control, 7-ethoxycoumarin (7-EC) at 10 µM, was run concurrently to assess Phase I metabolic activities in liver microsomes. […] After incubation, the samples were analyzed by LC-UV-MS (Table S7). The structures of the metabolites were proposed based on the interpretation of their MS and MS2 data. The results are presented in Table 6 and Figure 6. %Total=Peak Area of a Releted Component/Peak Area of Total Releted Component×100%

[9] = Metabolite identification by LC-UV-MS^n in human liver microsomes; assay type: in vitro ADME; parameters: key: +: metabolite was detected in liver microsomes; -: metabolite was not detected in liver microsomes; conditions: BEA 10 µM, 37 °C, 60 min
Method: as §7

[10] = Metabolite identification by LC-UV-MS^n in dog liver microsomes; assay type: in vitro ADME; parameters: key: +: metabolite was detected in liver microsomes; -: metabolite was detected in liver microsomes; conditions: BEA 10 µM, 37 °C, 60 min
Method: as §7

[11] = Metabolite identification by LC-UV-MS^n in monkey liver microsomes; assay type: in vitro ADME; parameters: key: +: metabolite was detected in liver microsomes; -: metabolite was not detected in liver microsomes; conditions: BEA 10 µM, 37 °C, 60 min
Method: as §7

[12] = Metabolite identification by LC-UV-MS^n in mouse liver microsomes; assay type: in vitro ADME; parameters: key: +: metabolite was detected in liver microsomes; -: metabolite was detected in liver microsomes; conditions: BEA 10 µM, 37 °C, 60 min
Method: as §7

[13] = Plasma stability, monkey plasma; assay type: in vitro ADME; conditions: cynomolgus
Method: as §5, §6

[14] = Plasma stability, human plasma; assay type: in vitro ADME
Method: as §5, §6

[15] = Plasma stability, mouse plasma; assay type: in vitro ADME
Method: as §5, §6

[16] = molecular target: T1, CYP2C9 (Homo sapiens, UniProt P11712); assay type: in vitro ADME; conditions: CYP2C9 in HLM; positive control, final conc. 3 μM in Table S1
T1 construct: tissue Corning or Xenotech; host or cells: human liver microsomes (mixed gender)
Method: A mixture of microsomes and substrates for each CYP isozyme were prepared individually in 100 mM potassium phosphate buffer at pH 7.4. […] The reaction mixture was incubated for 10 min, followed by the addition of 20 μL of 10 mM NADPH solution. […] At the appropriate time point, we terminated the reaction by adding 400 µL of cold stop solution (200 ng/mL tolbutamide and labetalol in acetonitrile). The samples were centrifuged at 4000 rpm for 20 min to precipitate the protein, and then detected by LC/MS/MS. XL fit was used to plot the percent of vehicle control versus the test compound concentrations and for nonlinear regression analysis of the data. The IC50 values were determined using 3- or 4-parameter logistic equations.

[17] = Metabolic stability in liver microsomes, RLM; assay type: in vitro ADME, Sprague Dawley rat
Method: (§8) All incubations were performed at 37 °C in 100 mM potassium phosphate buffer in an orbital incubator. Various nicotinamide adenine dinucleotide phosphate (NADPH) concentrations were tried to optimize the method. […]. The positive control compound testosterone was incubated in parallel with the BEA samples. Each bioanalysis plate was sealed and shaken for 10 min prior to LC-MS/MS analysis (Table S6). […]

[18] = Metabolic stability in liver microsomes, CLM; assay type: in vitro ADME, cynomolgus monkey
Method: (§9) All incubations were performed at 37 °C in 100 mM potassium phosphate buffer in an orbital incubator. Various nicotinamide adenine dinucleotide phosphate (NADPH) concentrations were tried to optimize the method. […] Samples were withdrawn from the reaction mixture at different times (5, 15, 30, 45, and 60 min), and the reaction was terminated using acetonitrile. […] Each bioanalysis plate was sealed and shaken for 10 min prior to LC-MS/MS analysis (Table S6).

[19] = Metabolic stability in liver microsomes, MLM; assay type: in vitro ADME, CD-1 mouse
Method: as §9

[20] = Metabolic stability in liver microsomes, DLM; assay type: in vitro ADME, beagle dog
Method: as §8

[21] = Plasma protein binding (HTdialysis equilibrium dialysis), rat plasma; assay type: in vitro ADME; conditions: Sprague Dawley, pH 7.4, read-out: Fu (%), unbound fraction
[22] = Plasma protein binding (HTdialysis equilibrium dialysis), dog plasma; assay type: in vitro ADME; conditions: beagle, pH 7.4, read-out: Fu (%), unbound fraction
[23] = Plasma protein binding (HTdialysis equilibrium dialysis), mouse plasma; assay type: in vitro ADME, CD-1 mouse; conditions: CD-1, pH 7.4, read-out: Fu (%), unbound fraction
[24] = Plasma protein binding (HTdialysis equilibrium dialysis), monkey plasma; assay type: in vitro ADME, cynomolgus monkey; conditions: pH 7.4, read-out: Fu (%), unbound fraction
[25] = tested on: CYP3A4/5; conditions: ref 20 (Li Mei's group); cited from earlier work
[26] = 120 min, read-out: Remaining % (T = 120 min)

T1 sequence (P11712 whole entry): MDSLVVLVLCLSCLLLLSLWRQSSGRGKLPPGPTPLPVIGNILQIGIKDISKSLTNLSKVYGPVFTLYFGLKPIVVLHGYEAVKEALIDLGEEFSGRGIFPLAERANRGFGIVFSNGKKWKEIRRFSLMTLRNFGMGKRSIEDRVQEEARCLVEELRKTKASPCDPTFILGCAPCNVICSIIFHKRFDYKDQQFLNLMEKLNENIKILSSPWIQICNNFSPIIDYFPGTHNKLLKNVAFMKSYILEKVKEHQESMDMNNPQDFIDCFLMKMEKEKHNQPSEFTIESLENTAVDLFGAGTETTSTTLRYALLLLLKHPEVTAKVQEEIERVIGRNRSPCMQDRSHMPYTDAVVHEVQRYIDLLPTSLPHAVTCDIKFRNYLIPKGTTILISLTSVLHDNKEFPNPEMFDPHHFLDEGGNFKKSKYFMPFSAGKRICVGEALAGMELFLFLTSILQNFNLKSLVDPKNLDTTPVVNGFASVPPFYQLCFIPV

Compound: CCOc1ccc2ccc(=O)oc2c1 [7-Ethoxycoumarin]
- half-life at 1 μM ([1]; cryopreserved hepatocytes (suspension), human hepatocytes, 0.5 × 10^6 cells/mL, 1 μM, n = 2): 41.6 min
- remaining at 1.5 h, 1 μM ([1]; cryopreserved hepatocytes in suspension, human hepatocytes, 90 min, read-out: Remaining % (T = 90 min)): 21.9%
- CLint scaled at 1 μM ([1]; cryopreserved hepatocytes in suspension, scaled from human hepatocyte CLint, read-out: CLint (liver)): 92.6 mL/min/kg
- CLint (hep) (μL/min/10^6) ([1]; human hepatocytes): 33.3 μL/min/10^6
- half-life at 1 μM ([2]; cryopreserved hepatocytes in suspension, monkey hepatocytes, 0.5 × 10^6 cells/mL, 1 μM, n = 2): 13.6 min
- CLint scaled at 1 μM ([2]; cynomolgus monkey, cryopreserved hepatocytes in suspension, scaled from monkey hepatocyte CLint, read-out: CLint (liver)): 367 mL/min/kg
- CLint (hep) (μL/min/10^6) ([2]; monkey hepatocytes): 102.0 μL/min/10^6
- Remaining % (T = 90 min) ([2]; monkey hepatocytes, 90 min): 0.0%
- half-life at 1 μM ([3]; beagle, cryopreserved hepatocytes in suspension, dog hepatocytes, 0.5 × 10^6 cells/mL, 1 μM, n = 2): 5.4 min
- CLint scaled at 1 μM ([3]; beagle, cryopreserved hepatocytes in suspension, scaled from dog hepatocyte CLint, read-out: CLint (liver)): 1760 mL/min/kg
- CLint (hep) (μL/min/10^6) ([3]; dog hepatocytes): 256.4 μL/min/10^6
- Remaining % (T = 90 min) ([3]; dog hepatocytes, 90 min): 0.0%
- half-life at 1 μM ([4]; CD-1, cryopreserved hepatocytes (suspension), mouse hepatocytes, 0.5 × 10^6 cells/mL, 1 μM, n = 2): < 7.5 min
- CLint scaled at 1 μM ([4]; CD-1, cryopreserved hepatocytes in suspension, scaled from mouse hepatocyte CLint, read-out: CLint (liver)): > 2200 mL/min/kg
- CLint (hep) (μL/min/10^6) ([4]; mouse hepatocytes): >184.8 μL/min/10^6
- Remaining % (T = 90 min) ([4]; mouse hepatocytes, 90 min): 0.0%
- half-life at 1 μM ([5]; Sprague Dawley, cryopreserved hepatocytes (suspension), rat hepatocytes, 0.5 × 10^6 cells/mL, 1 μM, n = 2): 18.2 min
- remaining at 1.5 h, 1 μM ([5]; Sprague Dawley, cryopreserved hepatocytes in suspension, rat hepatocytes, 90 min, read-out: Remaining % (T = 90 min)): 2.1%
- CLint scaled at 1 μM ([5]; Sprague Dawley, cryopreserved hepatocytes in suspension, scaled from rat hepatocyte CLint, read-out: CLint (liver)): 356 mL/min/kg
- CLint (hep) (μL/min/10^6) ([5]; rat hepatocytes): 76.0 μL/min/10^6

Compound: CC(=O)Oc1ccc(C(c2ccc(OC(C)=O)cc2)c2ccccn2)cc1 [Bisacodyl]
- half-life at 2 μM ([6]; 37 °C, n = 2): 7.2 min
- remaining at 2 h, 2 μM [6, 26]: 0%

Compound: CCOC(=O)[C@H](CCc1ccccc1)N[C@@H](C)C(=O)N1CCC[C@H]1C(=O)O.O=C(O)/C=C\C(=O)O [Enalapril maleate salt]
- T1/2 ([7]; 37 °C, n = 2): 12.8 min
- Remaining % (T = 120 min) ([7]; 120 min): 0.2%

Compound: CC(C)[C@H]1OC(=O)[C@H](Cc2ccccc2)N(C)C(=O)[C@@H](C(C)C)OC(=O)[C@H](Cc2ccccc2)N(C)C(=O)[C@@H](C(C)C)OC(=O)[C@H](Cc2ccccc2)NC1=O [M15]
- Detected in liver microsomes: Rat [8]: +
- Detected in liver microsomes: Human [9]: +
- Detected in liver microsomes: Dog [10]: +
- Detected in liver microsomes: Monkey [11]: +
- Detected in liver microsomes: Mouse [12]: +

Compound: CCN(CC)CCOC(=O)c1ccc(N)cc1 [Procaine Hydrochloride]
- half-life at 2 μM ([13]; 37 °C, n = 2): 4.4 min
- remaining at 2 h, 2 μM [13, 26]: 0%

Compound: CC(C)[N+](C)(CCOC(=O)C1c2ccccc2Oc2ccccc21)C(C)C [Propantheline bromide]
- half-life at 2 μM ([14]; 37 °C, n = 2): 10.3 min
- remaining at 2 h, 2 μM [14, 26]: 0%
- half-life at 2 μM ([15]; CD-1, 37 °C, n = 2): 36.6 min
- remaining at 2 h, 2 μM ([15]; CD-1, 120 min, read-out: Remaining % (T = 120 min)): 9.7%

Compound: Nc1ccc(S(=O)(=O)Nc2ccnn2-c2ccccc2)cc1 [Sulfaphenazole]
- Activity (% VC) [16]: 20.0 % VC

Compound: C[C@]12CC[C@H]3[C@@H](CCC4=CC(=O)CC[C@@]43C)[C@@H]1CC[C@@H]2O [Testosterone]
- Remaining % (T = 60 min) ([17]; RLM, 60 min): 0.0%
- microsomal CLint at 1 μM ([17]; Sprague Dawley, rat, microsomes, RLM, read-out: CLint(mic)): 1370 µL/min/mg
- CLint scaled at 1 μM ([17]; Sprague Dawley, rat, microsomes, scaled from RLM CLint(mic)): 2470 mL/min/kg
- Remaining % (T = 60 min) ([18]; CLM, 60 min): 0.0%
- half-life at 1 μM ([18]; cynomolgus monkey, liver microsomes, CLM, 1 μM, NADPH, n = 2): 5 min
- microsomal CLint at 1 μM ([18]; cynomolgus monkey, liver microsomes, CLM, read-out: CLint(mic)): 277 µL/min/mg
- CLint scaled at 1 μM ([18]; cynomolgus monkey, liver microsomes, scaled from CLM CLint(mic)): 374 mL/min/kg
- half-life at 1 μM ([19]; CD-1, mouse, liver microsomes, MLM, 1 μM, NADPH, n = 2): 3.9 min
- microsomal CLint at 1 μM ([19]; CD-1, mouse, liver microsomes, MLM, read-out: CLint(mic)): 359 µL/min/mg
- CLint scaled at 1 μM ([19]; CD-1, mouse, liver microsomes, scaled from MLM CLint(mic)): 1420 mL/min/kg
- Remaining % (T = 60 min) ([19]; MLM, 60 min): 0.0%
- T1/2 ([20]; DLM, 1 μM, NADPH, n = 2): 20.0 min
- microsomal CLint at 1 μM ([20]; beagle, dog, microsomes, DLM, read-out: CLint(mic)): 69.2 µL/min/mg
- CLint scaled at 1 μM ([20]; beagle, dog, microsomes, scaled from DLM CLint(mic)): 99.6 mL/min/kg

Compound: CC(=O)CC(c1ccccc1)c1c(O)c2ccccc2oc1=O (stereo not shown) [warfarin]
- fraction unbound at 5 h [21]: 0.0052
- fraction unbound at 5 h [22]: 0.0246
- fraction unbound at 5 h [23]: 0.0271
- fraction unbound at 5 h [24]: 0.0084

Compound: Beauvericin
- Inhibition mechanism, CYP3A4 [25]: mix-type
